Results from paper PMC2959027, “Expression and function of human hemokinin-1 in human and guinea pig airways” (Respiratory Research, 2010).
No end group written: not given here.

Experiments:
Format in all cases: cell-based
[1] = tested on: human bronchi; assay: Effect of NK1, NK2 or NK3 receptor antagonists on peptide-induced contraction of human isolated bronchi; details: phosphoramidon 10^-6 M; for effect of antagonist on contraction by cumulative additions of hHK-1 / response to a single addition of 10^-6 M hHK-1 in the presence of antagonist / effect of antagonist on the response to [Sar^9,Met(O2)^11] SP (10^-6 M), single addition: antagonist 10^-7 M; for effect of antagonist on contraction by cumulative additions of hHK-1: n = 5-12; for response to a single addition of 10^-6 M hHK-1 in the presence of antagonist: % of ACh 3 mM, control 42 ± 4%, not significant, mean ± s.e.m., n = 6-12; for effect of antagonist on the response to [Sar^9,Met(O2)^11] SP (10^-6 M), single addition: n = 6; for effect of the association of SR 140333 and SR 48968 on contraction to a single addition of 10^-6 M hHK-1: both antagonists 10^-7 M together
Source text: (§1) Human bronchial tissues were removed from 47 patients undergoing surgical resection at Foch Hospital (Suresnes, France) or Val d'or Clinic (Saint Cloud, France) for lung cancer (31 men and 16 women; age = 64 ± 9 years). Just after resection, segments of human bronchi with an inner diameter (ID) of 1 to 3 mm were taken as far as possible from the malignant lesion. Male Hartley guinea pigs (Charles River, L'Arbresle, France) weighing 300 to 350 g were sacrificed by cervical dislocation, and tracheas and proximal bronchi were removed. After the removal of adhering lung parenchyma and connective tissues, rings from human bronchi (5-7 mm long, […]) and guinea pig trachea (3 mm long, 3 mm ID) or proximal airways (3 mm long, 1 mm ID) were prepared. 8 to 24 segments of human bronchi were obtained from each patient, whereas 8 trachea segments and 2 to 3 main bronchi segments were obtained from each guinea pig. For RT-PCR analysis, human bronchi were isolated within 1 hour after resection, immediately disrupted and homogenized in TRIzol reagent (Invitrogen) with a Potter Elvehjem homogenizer, and homogenates were kept frozen at -80°C until mRNA extraction. Experiments with human lung tissues were approved by the Regional Ethics Committee for Biomedical Research and animals were used as recommended by animal care guidelines.
(§2) Human bronchial rings and guinea pig tracheal and bronchial rings were suspended on hooks in 5 mL organ bath containing a modified Krebs-Henseleit solution (NaCl 119, KCl 4.7, CaCl2 2.5, KH2PO4 1.2, NaHCO3 25 and glucose 11.7 mM), maintained at 37°C and oxygenated with 95% O2 and 5% CO2. An initial tension of 2 g was applied to tissues, according to previously described protocols. Changes of tension were measured isometrically with Gould strain gauges (UF1; Piodem, Canterburry, Kent, UK); and were recorded and post-processed with IOX and Datanalyst softwares (Emka Technologies France, Paris). During the initial stabilization period (30 min), tissues were washed every 10 minutes with Krebs-Henseleit solution. Phosphoramidon was used to inhibit enzymatic degradation of tachykinins by NEP [21, 40]. Phosphoramidon (10^-6 M) was added in organ bath with or without NK1-, NK2- or NK3-receptor antagonists (SR 140333, SR 48968 and SR 142801, 10^-7 M) after the first stabilization period. Antagonist concentrations were chosen based on their reported affinities for human tachykinin receptors and on their ability to antagonize HK-1-induced responses at similar concentrations in other models. Tissues were then equilibrated 1 hour and concentration-response curves to tachykinins and related peptides were established by applying cumulative concentrations of peptides at 5 to 10 min intervals in semi-logarithmic increments, or by applying a single concentration of peptide. Only one concentration-response curve to tachykinins was recorded in each strip, and each experiment was performed in duplicate. Maximal response was determined by a final addition of acetylcholine hydrochloride (ACh, 3 mM). Contractile responses to tachykinins and related compounds were expressed as percentage of that induced by ACh. The pD2 (defined as the negative log of the molar drug concentration that caused 50% of maximal effect) were calculated from the log concentration-effect curves. When the pD2 value was not assessable (maximal effect (Emax) not reached), it was replaced by the -log EC20 (defined as the negative log of the drug concentration that caused 20% of maximal contraction with ACh). All values in the text and in the figures are expressed as arithmetic mean ± standard error of the mean (s.e.m) of duplicate experiments on tissues from the given (n) number of individuals or animals.

[2] = tested on: guinea-pig trachea; assay: Effect of NK1 or NK2 receptor antagonists on hHK-1-induced contraction of guinea pig trachea; details: for effect of antagonist on contractions induced by hHK-1, guinea-pig trachea: antagonist 10^-7 M, cumulative additions of hHK-1, phosphoramidon 10^-6 M
Source text: as §1, with “For RT-PCR analysis, human bronchi were isolated within 1 hour after resection, immediately disrupted and homogenized in TRIzol reagent (Invitrogen) with a Potter Elvehjem homogenizer, and homogenates were kept frozen at -80°C until mRNA extraction. Experiments with human lung tissues were approved by the Regional Ethics Committee for Biomedical Research and animals were used as recommended by animal care guidelines.” left out
(§3) Human bronchial rings and guinea pig tracheal and bronchial rings were suspended on hooks in 5 mL organ bath containing a modified Krebs-Henseleit solution (NaCl 119, KCl 4.7, CaCl2 2.5, KH2PO4 1.2, NaHCO3 25 and glucose 11.7 mM), maintained at 37°C and oxygenated with 95% O2 and 5% CO2. […] Changes of tension were measured isometrically with Gould strain gauges (UF1; Piodem, Canterburry, Kent, UK); and were recorded and post-processed with IOX and Datanalyst softwares (Emka Technologies France, Paris). […] Only one concentration-response curve to tachykinins was recorded in each strip, and each experiment was performed in duplicate. Maximal response was determined by a final addition of acetylcholine hydrochloride (ACh, 3 mM). Contractile responses to tachykinins and related compounds were expressed as percentage of that induced by ACh. The pD2 (defined as the negative log of the molar drug concentration that caused 50% of maximal effect) were calculated from the log concentration-effect curves. […]

[3] = tested on: guinea pig main bronchi; assay: Effect of NK1 or NK2 receptor antagonists on hHK-1-induced contraction of guinea pig main bronchi; details: antagonist 10^-7 M; cumulative additions of hHK-1; phosphoramidon 10^-6 M; n = 5-7
Source text: (§4) Human bronchial tissues were removed from 47 patients undergoing surgical resection at Foch Hospital (Suresnes, France) or Val d'or Clinic (Saint Cloud, France) for lung cancer (31 men and 16 women; age = 64 ± 9 years). Just after resection, segments of human bronchi with an inner diameter (ID) of 1 to 3 mm were taken as far as possible from the malignant lesion. Male Hartley guinea pigs (Charles River, L'Arbresle, France) weighing 300 to 350 g were sacrificed by cervical dislocation, and tracheas and proximal bronchi were removed. […]
as §3, with “ACh.” for “ACh. The pD2 (defined as the negative log of the molar drug concentration that caused 50% of maximal effect) were calculated from the log concentration-effect curves.”

[4] = tested on: guinea-pig trachea; assay: Contraction of guinea pig trachea by tachykinin peptides (organ bath); details: cumulative additions, phosphoramidon 10^-6 M; for Emax (% of Ach 3 mM) / pD2: guinea-pig trachea, mean ± s.e.m. for n determinations (n = 6-12); for contractile effect on guinea-pig trachea: EKA/B 10^-8 M-10^-6 M
Source text: as §1, §2

[5] = tested on: human bronchi; assay: Contraction of human isolated bronchi by tachykinin peptides (organ bath, isometric tension); details: phosphoramidon 10^-6 M
Source text: as §1, §2

[6] = tested on: human bronchi; assay: Cross-desensitization of NK1 receptors after consecutive applications of hHK-1 and [Sar^9,Met(O2)^11] SP on human bronchi; details: phosphoramidon 10^-6 M, n = 5
Experimental: as §2

[7] = tested on: guinea pig main bronchi; assay: Contraction of guinea pig main bronchi by tachykinin peptides (organ bath); details: cumulative additions; phosphoramidon 10^-6 M; n = 6-7
Source text: as §4
as §3, with “ACh.” for “ACh. The pD2 (defined as the negative log of the molar drug concentration that caused 50% of maximal effect) were calculated from the log concentration-effect curves.”

[8] = 10^-7 M, % of ACh 3 mM, mean ± s.e.m.

Compound: CC(=O)N(C)C1(c2ccccc2)CCN(CCCC2(c3ccc(Cl)c(Cl)c3)CCCN(C(=O)c3ccccc3)C2)CC1 (stereo in doubt) [SR 142801, (S)-(N)-(1-(3-(1-benzoyl-3-(3,4-dichlorophenyl)piperidin-3-yl)propyl)-4-phenylpiperidin-4-yl)-N-methylacetamide]
- effect of antagonist on contraction by cumulative additions of hHK-1 [1]: did not alter

Compound: CC(=O)NC1(c2ccccc2)CCN(CC[C@H](CN(C)C(=O)c2ccccc2)c2ccc(Cl)c(Cl)c2)CC1 [SR 48968, (S)-N-methyl-N-[4-acetylamino-4-phenylpiperidino-2-(3,4-dichlorophenyl)butyl]benzamide]
- effect of antagonist on contractions induced by hHK-1, guinea-pig trachea [2]: altered to a lesser extent
- response to a single addition of 10^-6 M hHK-1 in the presence of antagonist [1]: 31 ± 4%
- effect of antagonist on contraction by cumulative additions of hHK-1 [1]: completely abolished
- effect of antagonist on the response to [Sar^9,Met(O2)^11] SP (10^-6 M), single addition [1]: unmodified
- effect of the association of SR 140333 and SR 48968 on contraction to a single addition of 10^-6 M hHK-1 [1]: abolished the smooth muscle contraction
- effect of antagonist on contractions induced by hHK-1, guinea pig main bronchi [3]: altered to a lesser extent

Compound: CC(C)Oc1cccc(CC(=O)N2CCC[C@](CC[N+]34CCC(c5ccccc5)(CC3)CC4)(c3ccc(Cl)c(Cl)c3)C2)c1.[Cl-] [SR 140333, (S)1-(2-[3-(3,4-dichlorophenyl)-1-(3-isopropoxyphenylacetyl)piperidin-3-yl]ethyl)-4-phenyl-1-azoniabicyclo [2.2.2]octane chloride]
- effect on maximal contractions induced by hHK-1, guinea-pig trachea ([2]; SR 140333 10^-9 to 10^-7 M, n = 4-11, suggesting non competitive antagonism): reduced maximal contractions
- effect of antagonist on contractions induced by hHK-1, guinea-pig trachea [2]: abolished
- response to a single addition of 10^-6 M hHK-1 in the presence of antagonist [1]: 31 ± 5%
- effect of antagonist on contraction by cumulative additions of hHK-1 [1]: small but not statistically significant reduction
- effect of antagonist on the response to [Sar^9,Met(O2)^11] SP (10^-6 M), single addition [1]: specifically abolished
- effect of the association of SR 140333 and SR 48968 on contraction to a single addition of 10^-6 M hHK-1 [1]: abolished the smooth muscle contraction
- effect of antagonist on contractions induced by hHK-1, guinea pig main bronchi [3]: abolished

Compound: [Sar^9,Met(O2)^11] substance P [[Sar^9,Met(O2)^11] SP]
- Emax (% of Ach 3 mM) [4]: 76 ± 2 % of Ach 3 mM
- pD2 [4]: 7.5 ± 0.1
- Emax, cumulative additions in the presence of SR 48968 ([5]; NK2 antagonist SR 48968 10^-7 M, inverted U-shaped curve, % of ACh 3 mM, mean ± s.e.m.): 13 ± 3%
- pD2, single additions in the presence of SR 48968 ([5]; NK2 antagonist SR 48968 10^-7 M, non cumulative additions, mean ± s.e.m., hHK-1 n = 5-7, [Sar^9,Met(O2)^11] SP n = 10): 8.0 ± 0.4
- maximal contraction, single additions in the presence of SR 48968 ([5]; NK2 antagonist SR 48968 10^-7 M, non cumulative additions, sigmoid curve, % of ACh 3 mM, mean ± s.e.m., hHK-1 n = 5-7, [Sar^9,Met(O2)^11] SP n = 10): 26 ± 7%
- contraction, first addition of [Sar^9,Met(O2)^11] SP (followed by a second addition of the same peptide) [6, 8]: 33 ± 7%
- contraction, initial addition of [Sar^9,Met(O2)^11] SP (followed by hHK-1) [6, 8]: 32 ± 7%
- contraction, second addition of [Sar^9,Met(O2)^11] SP after a first addition of [Sar^9,Met(O2)^11] SP ([6]; 10^-7 M, % of ACh 3 mM, mean ± s.e.m., p < 0.01 vs first): 4 ± 1%
- response to [Sar^9,Met(O2)^11] SP after a first addition of hHK-1 ([6]; [Sar^9,Met(O2)^11] SP 10^-7 M after hHK-1 3.10^-7 M): abolished

Compound: [β-Ala^8]-NKA (4-10)
- Emax (% of Ach 3 mM) [4]: 80 ± 5 % of Ach 3 mM
- pD2 [4]: 8.3 ± 0.6

Compound: endokinin A/B [EKA/B]
- potency on guinea-pig isolated bronchi compared with SP and [Sar^9,Met(O2)^11] SP [7]: less potent
- -log EC20 ([5]; negative log of concentration causing 20% of maximal contraction with ACh, cumulative additions, mean ± s.e.m., n = 3): 7.2 ± 0.3

Compound: endokinin C (KKAYQLEHTFQGLL; ends and bridges not checked; UniProt Q86UU9 82-95, looked up) [EKC, peptide derived from TAC4, custom synthesized]
- contractile effect on guinea-pig trachea [4]: without effect
- contractile activity on human isolated bronchi ([5]; cumulative additions, n = 3): devoid of any contractile activity

Compound: endokinin D [EKD]
- contractile effect on guinea-pig trachea [4]: without effect
- contractile activity on human isolated bronchi ([5]; cumulative additions, n = 3): devoid of any contractile activity
